Results from patent US20210315893A1 (Galapagos NV, priority 2017, published 2021).

Columns and labels:
[1] = target: T1, human GPCR sphingosine 1-phosphate receptor 2 (Homo sapiens, UniProt O95136); assay: S1PR2 antagonist Ca2+ flux assay; format: cell-based; settings: antagonist mode, CHO-S1PR2 cells, S1P at EC80, Ca2+ fluorescence; read-out: S1P2 EC50 (nM), S1P2 antagonist EC50
T1 construct: host or cells: CHO
Protocol: Triggering of S1PR2 by administration of Sphingosine-1-phosphate leads to a transient increase in intracellular Ca^2+. The Ca^2+ flux assays are measuring the release of Ca^2+ intracellularly by use of a Ca^2+ sensitive fluorescent dye. The assay is firstly run in agonist mode (incubation of compounds alone) to ensure that the Ca^2+ released measured is not caused by the test compound having an agonistic effect. Then the assay is continued in antagonist mode (Sphingosine-1-Phosphate added to incubated medium containing the test compounds).
CHO cells stably overexpressing human GPCR sphingosine 1-phosphate receptor 2 (CHO-S1PR2 Perkin Elmer; ES-594-A) are seeded from a frozen stock in 384 wells sterile microplates (50 μL; 7,500 cells/well) and are incubated overnight at 37° C. and 5% CO2. The next day cells are washed twice with starvation medium (F-12 Ham's medium containing 0.1% BSA (Fatty acid free: FAF)) and left in 25 μL starvation medium for 1 h at 37° C., 5% CO2. After this starvation cells are incubated with 25 μL buffer containing the Ca^2+-sensitive fluorescent dye (0.5 mg Fluo8+125 mg Allura Red in 100 mL of 1% DMSO, in HBSS+20 mM Hepes+5 mM probenecid). The cells are incubated for an additional 1 h after which 10 μL compounds, diluted in HBSS buffer with 20 mM Hepes and 0.1% BSA (FAF), are added to the cells and intracellular Ca2+ changes are immediately measured by reading fluorescence during 3 min (FDSS/pCELL reader). The ratio of the maximal fluorescence over the background fluorescence before compound injection is used to determine compound response.
After readout of the agonist activity, the plates are incubated for 15 min at 37° C. and 5% CO2. Then, cells are stimulated with 10 μL Sphingosine-1-Phosphate (S1P) (Avanti Polar lipids-860492P) at its EC80 concentration. Intracellular Ca2+ changes are immediately measured by reading fluorescence during 3 min (FDSS/pCELL reader). The ratio of the maximal fluorescence over the background fluorescence before compound injection is used to determine compound response.
The obtained ratio's for agonist and antagonist readout were normalized versus vehicle and EC 100 of S1P ascontrols for agonist mode and versus vehicle and […]. From these normalized data EC50 of the compounds are derived.

[2] = test system: HFL-1 cells; assay: IL-8 production assay (S1P induced IL-8); format: cell-based; settings: Homo sapiens, HFL1; S1P (1 μM) induced IL-8 in HFL-1 cells, starvation medium without HSA; read-out: IL8 EC50
Protocol: This assay is designed to test inhibitory activity of compounds on S1P induced IL-8 on HFL-1 cells, ahuman fetal lung fibroblast cell line.
Human Fetal Lung cells (HFL-1) are seeded in 96 well plates in growth medium (F12K+10% heat inactivated FBS+l1% Pen/strep). After overnight incubation at 37° C., […] cells are refreshed with starvation medium without HSA (F12K+1% FBS+1% Pen/strep). On day three, compounds are added (10 point serial dilution, 30 μM highest concentration, 1/3 dilution, 0.3% DMSO final) and plates are incubated for one h at 37° C., 5% CO2. Subsequently S1P at 1 μM final concentration is added and plates are incubated for 16 to24 h at 37° C., […] after which the supermatant was collected. IL-8 levels in the supernatant are determined with the IL-8 ELISA of R&D systems.

[3] = target: T2, S1PR2 (Homo sapiens, UniProt O95136); assay: S1PR2 binding assay (competition with radioactively labeled S1P, SpA); settings: membranes from stable cell line over expressing S1PR2, SpA beads; read-out: S1P2 EC50 (nM), S1PR2 binding EC50
T2 construct: expressed in transfected cells
T2 sequence (O95136 whole entry): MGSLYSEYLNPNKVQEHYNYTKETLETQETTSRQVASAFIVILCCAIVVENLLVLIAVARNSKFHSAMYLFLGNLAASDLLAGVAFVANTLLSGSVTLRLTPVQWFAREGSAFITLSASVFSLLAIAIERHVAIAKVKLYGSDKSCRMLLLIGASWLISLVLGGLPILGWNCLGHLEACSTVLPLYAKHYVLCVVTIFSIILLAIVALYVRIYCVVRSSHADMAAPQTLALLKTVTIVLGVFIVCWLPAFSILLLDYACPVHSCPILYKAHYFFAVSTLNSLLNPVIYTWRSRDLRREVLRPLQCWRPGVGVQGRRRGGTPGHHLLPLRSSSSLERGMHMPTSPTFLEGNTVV
Protocol: The following assay can be used for determination of S1PR2 binding. The binding assay measures the potential to compete with radioactively labeled S1P for binding to the receptor.
The assay is performed in a96 well plate where the following reagents are added. First 50 μL compound is added into the assay plate, followed by addition of 100 μL ofa mixture consisting of membrane and Scintillation proximity Assay (SpA) beads [mixture consists […] membranes derived from stable cell line over expressing SPR2, 0.5 mg/well Polyvinyltoluene-Wheat Germ-Agglutinin (PVT-WGA) beads (Perkin Elmer, RPNQOO1)]. All components are diluted in assay buffer containing 20 mM Tris pH 7.5; 10 mM MgCl2; 100 mM NaCl; 0.4% BSA FAF; 1 mM Na3VO4) and incubated for 15 min until addition to the assay plate. Subsequently, 50 ul of radioactively labeled S1P is added to the wells (Sphingosine, D-erythro-[3-3H] 1-phosphate; ARC; ART0778). After an incubation for 2 h at room temperature, plates are centrifuged at 2000 rpm during 20 min. Plates are read on a Topcount reader (Perkin Elmer) immediately after centrifugation (readout time, 1 min/well).

[4] = test system: HFL-1 cells; assay: IL8 assay in the presence of Human Serum Albumin; settings: HFL1, read-out: HSA IL8 EC50

T1 sequence (O95136 whole entry): as above

EC50 [1] [nM]	EC50 [2] [µM]	EC50 [3] [nM]	EC50 [4] [µM]	SMILES
868	1.11	3900	10	O=c1c2ccccc2c(Cc2nc3cc(Cl)c(OC(F)(F)F)cc3[nH]2)nn1CC1CC1 [Compound 27, 4-[[6-chloro-5-(trifluoromethoxy)-1H-benzimidazol-2-yl]methyl]-2-(cyclopropylmethyl)phthalazin-1-one]
9.47	0.0137	93.3	0.0745	COc1ccc2c(=O)n(CC(=O)N3CCOCC3)nc(Cc3nc4cc(Cl)c(OCC(F)F)cc4[nH]3)c2c1 [Compound 30, 4-[[5-chloro-6-(2,2-difluoroethoxy)-1H-benzimidazol-2-yl]methyl]-6-methoxy-2-(2-morpholino-2-oxo-ethyl)phthalazin-1-one]
9.11	0.011	93.2	0.0726	COc1ccc2c(Cc3nc4cc(Cl)c(OCC(F)F)cc4[nH]3)nn(CC(=O)N3CCOCC3)c(=O)c2c1 [Compound 31, 4-[[5-chloro-6-(2,2-difluoroethoxy)-1H-benzimidazol-2-yl]methyl]-7-methoxy-2-(2-morpholino-2-oxo-ethyl)phthalazin-1-one]
86.5	0.0156	378	0.129	O=C(Cn1nc(Cc2nc3cc(Cl)c(OCC(F)F)cc3[nH]2)c2ccc(N3CCOCC3)cc2c1=O)N1CCOCC1 [Compound 33, 4-[[5-chloro-6-(2,2-difluoroethoxy)-1H-benzimidazol-2-yl]methyl]-7-morpholino-2-(2-morpholino-2-oxo-ethyl)phthalazin-1-one]
86.4	0.145	261	0.292	N#Cc1ccc2c(Cc3nc4cc(Cl)c(OCC(F)F)cc4[nH]3)nn(CC(=O)N3CCOCC3)c(=O)c2c1 [Compound 40, 1-[[5-chloro-6-(2,2-difluoroethoxy)-1H-benzimidazol-2-yl]methyl]-3-(2-morpholino-2-oxo-ethyl)-4-oxo-phthalazine-6-carbonitrile]
1050	0.685	1310	2.78	CS(=O)(=O)c1ccc2c(=O)n(CC(=O)N3CCOCC3)nc(Cc3nc4cc(Cl)c(OCC(F)F)cc4[nH]3)c2c1 [Compound 41, 4-[[5-chloro-6-(2,2-difluoroethoxy)-1H-benzimidazol-2-yl]methyl]-6-methylsulfonyl-2-(2-morpholino-2-oxo-ethyl)phthalazin-1-one]
2240	1.36	4520	10	O=C(O)C1(Cn2nc(Cc3nc4cc(Cl)c(OC(F)(F)F)cc4[nH]3)c3ccccc3c2=O)CC1 [Compound 47, 1-[[4-[[5-chloro-6-(trifluoromethoxy)-1H-benzimidazol-2-yl]methyl]-1-oxo-phthalazin-2-yl]methyl]cyclopropanecarboxylic acid]
23.8	0.0322	93.5	0.0411	N#Cc1cc2[nH]c(Cc3nn(CC(=O)N4CCOCC4)c(=O)c4cccc(C5CC5)c34)nc2cc1OCC(F)F [Compound 54, 2-[[8-cyclopropyl-3-(2-morpholino-2-oxo-ethyl)-4-oxo-phthalazin-1-yl]methyl]-6-(2,2-difluoroethoxy)-3H-benzimidazole-5-carbonitrile]
677	0.591	581	1.12	O=c1c2ccccc2c(Cc2nc3cc(Cl)c(OC(F)(F)F)cc3[nH]2)nn1CC1CNC1 [Compound 61, 2-(azetidin-3-ylmethyl)-4-[[6-chloro-5-(trifluoromethoxy)-1H-benzimidazol-2-yl]methyl]phthalazin-1-one]
968	0.349	453	6.43	O=c1c2ccccc2c(Cc2nc3cc(Cl)c(OC(F)(F)F)cc3[nH]2)nn1C1CCNCC1 [Compound 62, 4-[[6-chloro-5-(trifluoromethoxy)-1H-benzimidazol-2-yl]methyl]-2-(4-piperidyl)phthalazin-1-one]
1330	0.365	478	0.563	N#Cc1cc2nc(Cc3nn(C4CN(CC(=O)O)C4)c(=O)c4ccccc34)cn2cc1OCC1CC1 [Compound 73]
2660	0.823	5330	0.779	CN(C)CC(C(=O)O)n1nc(Cc2nc3cc(OCC(F)F)c(C#N)cc3[nH]2)c2ccccc2c1=O (stereo not shown) [Compound 74, 2-[4-[[6-cyano-5-(2,2-difluoroethoxy)-1H-benzimidazol-2-yl]methyl]-1-oxo-phthalazin-2-yl]-3-(dimethylamino)propanoic acid]
47.9	0.133	–	1.05	CC(C)(C)COc1cc2[nH]c(Cc3nn(CC(=O)N4CCOCC4)c(=O)c4ccccc34)nc2cc1Cl [Compound 160, 4-[[5-chloro-6-(2,2-dimethylpropoxy)-1H-benzimidazol-2-yl]methyl]-2-(2-morpholino-2-oxo-ethyl)phthalazin-1-one]
–	0.00465	–	0.0799	CCOc1cc2[nH]c(Cc3nn(CC(=O)N4CCOCC4)c(=O)c4ccccc34)nc2cc1Cl [Compound 165, 4-[(5-chloro-6-ethoxy-1H-benzimidazol-2-yl)methyl]-2-(2-morpholino-2-oxo-ethyl)phthalazin-1-one]
120	0.2	–	0.112	N#Cc1cc2[nH]c(Cc3nn(CC(=O)N4CC(O)(C5CC5)C4)c(=O)c4ccccc34)nc2cc1OCC(F)F [Compound 215, 2-[[3-[2-(3-cyclopropyl-3-hydroxy-azetidin-1-yl)-2-oxo-ethyl]-4-oxo-phthalazin-1-yl)methyl]-6-(2,2-difluoroethoxy)-3H-benzimidazole-5-carbonitrile]
11600	2.66	–	2.35	N#Cc1cc2nc(Cc3nn(CC(=O)N4CCOCC4)c(=O)c4ccccc34)cn2cc1OCC(F)F [Compound 256, 6-(2,2-difluoroethoxy)-2-[[3-(2-morpholino-2-oxo-ethyl)-4-oxo-phthalazin-1-yl]methyl]imidazo[1,2-a]pyridine-7-carbonitrile]
–	0.0124	–	0.0572	CCOc1cc2[nH]c(Cc3nn(CC(=O)O)c(=O)c4ccccc34)nc2cc1Cl [compound 6, 2-[4-[(5-chloro-6-ethoxy-1H-benzimidazol-2-yl)methyl]-1-oxo-phthalazin-2-yl]acetic acid]

SMILES	EC50 [1] [nM]	EC50 [2] [µM]	EC50 [3] [nM]	EC50 [4] [µM]
CC(C)COc1cc2[nH]c(Cc3nn(CC(=O)N4CCOCC4)c(=O)c4ccccc34)nc2cc1Cl [Compound 173, 4-[(5-chloro-6-isobutoxy-1H-benzimidazol-2-yl)methyl]-2-(2-morpholino-2-oxo-ethyl)phthalazin-1-one]	16	0.0024	–	0.00347
